In patent publication EP0609437B1, “NOVEL SPHINGOGLYCOLIPID AND USE THEREOF” (KIRIN BEER KABUSHIKI KAISHA, priority 1991, dated 1993):
Where two headings read alike, the source gives them in different places.

Legend:
[1] = test system: B16 mouse melanoma cells; experiment: Anti-tumor activity against B16 mouse melanoma inoculated subcutaneously; type: in vivo; settings: maximum tumor growth inhibition rate during the test period of 20 days, female BDF1 mice, 0.1 mg/kg intravenously on days 1, 5 and 9 after s.c. inoculation; for inhibition in vivo at 0.1 mg/kg: Mus musculus, iv, 480 h, read-out: TGIR (%)
Procedure: Anti-tumor activity against B16 mouse melanoma inoculated subcutaneously.
Experiment was carried out with the groups of 6 female BDF1 mice (6 weeks old) purchased from Japan SLC Inc., B16 mouse melanoma cells (1 × 10^6 cells/mouse) were inoculated subcutaneously in the rear region of mice, and the sample prepared in a concentration of 0.1 mg/kg was administered intravenously at a dose of 0.2 ml/20g/mouse after 1, 5 and 9 days from inoculation (the day of inoculation being set as 0 day). The volume of the tumor at the hypodermis of the rear region [(longer diameter × shorter diameter × height)/2] was measured on 8, 12, 16 and 20 days after inoculation, and the tumor growth inhibition rate (TGIR) of each sample was determined. TGIR was calculated from the following equation: TGIR (%) = (1 - T/C) × 100 [formula] wherein C represents a tumor volume of the control group and T represents a tumor volume of the group to which the sample was administered.
In this connection, respective test runs were divided by broken lines.

[2] = test system: spleen cells of C57BL/6 mouse and pancreatic cells of BALB/c mouse; experiment: Lymphocyte mixed culture reaction (mouse MLR), uptake of 3H-TdR; type: cell-based; settings: for activity at 1 µg/mL / activity at 0.1 µg/mL / activity at 0.01 µg/mL: Mus musculus, Lymphocyte, read-out: Uptake of ^3H-TdR (% of control)
Procedure: Experiment was carried out with the spleen cells of C57BL/6 mouse which had been treated with mitomycin C (50 µg/ml, 30 min) as the stimulator and with the […] cells of BALB/c mouse as the responder. These […] cells were suspended to a concentration of 2 × 10^6 cells/ml with a culture medium of 10% FCS RPMI 1640, respectively. These cells (50 µl/well) and a sample (10 µl/well) were plated in a 96 well round-bottomed plate and cultured for 42 hours* under the condition of 37°C and 5% CO2. ^3H-thymidine (^3H-TdR) was added in a dose of 0.5 µCi/well. After 8 hours, the cells were harvested and subjected to the measurement of the uptake of ^3H-TdR by a liquid scintillation counter.
*The samples of the compounds 32, 33 and 34 were cultured for 4 days.

[3] = test system: male Crj:CD rats; experiment: Acute toxicity, single intravenous administration; type: in vivo; settings: 7 days
Procedure: (§1) The compound 5 was once administered intravenously in doses of 0.1, 1.0 and 10 mg/kg to the groups of 6 male Crj:CD rats (5 weeks old), and the toxicity tests were conducted for 7 days after the administration of the compound 5.

[4] = Acute toxicity, single intravenous administration; type: in vivo; settings: rat, in vivo; single intravenous dose, male Crj:CD rats, observed for 7 days
Procedure: as §1

[5] = 50 h, sample concentration 10^0 µg/ml, cultured for 42 hours, then 8 hours with 3H-TdR
[6] = 50 h, sample concentration 10^-1 µg/ml, cultured for 42 hours, then 8 hours with 3H-TdR
[7] = 50 h, sample concentration 10^-2 µg/ml, cultured for 42 hours, then 8 hours with 3H-TdR

Molecule	inhibition in vivo at 0.1 mg/kg [1] [%]	activity at 1 µg/mL [2, 5] [%]	activity at 0.1 µg/mL [2, 6] [%]	activity at 0.01 µg/mL [2, 7] [%]	also measured
CCCCCCCCCCCCCCCCCCCCCC[C@H](O)C(=O)N[C@@H](CO[C@H]1O[C@H](CO)[C@H](O)[C@H](O)[C@H]1O)[C@H](O)[C@H](O)CCCCCCCCCCCCC [Compound 28, (2S,3S,4R)-1-(α-D-galactopyranosyloxy)-2-[(S)-2-hydroxytetracosanoylamino]-3,4-heptadecanediol]	76.2	357	172	141	–
CCCCCCCCCCCCCCC[C@@H](O)[C@H](CO[C@H]1O[C@H](CO)[C@H](O)[C@H](O)[C@H]1O)NC(=O)CCCCCCCCCCCCC [Compound 5, (2S,3R)-1-(α-D-galactopyranosyloxy)-2-tetradecanoylamino-3-octadecanol]	92.1	473	170	153	lethality ([3]; single intravenous dose of 10 mg/kg): not lethal; autopsy findings ([3]; single intravenous doses of 0.1, 1.0 and 10 mg/kg): no abnormality was observed; LD50 at 168 h [4]: ≥ 10 mg/kg
CCCCCCCCCCCCCC(=O)N[C@H](CO[C@H]1O[C@H](CO)[C@H](O)[C@H](O)[C@H]1O)[C@@H](O)CCCCCCCCCCCCC [Compound 11, (2R,3S)-1-(α-D-galactopyranosyloxy)-2-tetradecanoylamino-3-hexadecanol]	55.9	128	105	95	–
CCCCCCCCCCCCC/C=C/[C@@H](O)[C@H](CO[C@H]1O[C@H](CO)[C@H](O)[C@H](O)[C@H]1O)NC(=O)CCCCCCCCCCCCC [Compound 35, (2S,3R,4E)-1-(α-D-galactopyranosyloxy)-2-tetradecanoylamino-4-octadecen-3-ol]	63	562	261	247	–
CCCCCCCCCCCCCCCCCCCCCCCCCC(=O)N[C@@H](CO[C@H]1O[C@H](CO)[C@H](O)[C@H](O)[C@H]1O)[C@H](O)[C@H](O)CCCCCCCCCCCCC [Compound 20, (2S,3S,4R)-1-(α-D-galactopyranosyloxy)-2-hexacosanoylamino-3,4-heptadecanediol]	73.7	443	188	192	–
(2S,3S,4R)-1-(α-D-galactopyranosyloxy)-2-[(R)-2-hydroxytetracosanoylamino]-3,4-hexadecanediol [Compound 32]	–	–	–	–	TGIR (%) [1]: 73.2%; Uptake of ^3H-TdR (% of control) ([2]; sample concentration 10^-1 µg/ml, cultured for 4 days): 406 % of control; Uptake of ^3H-TdR (% of control) ([2]; sample concentration 10^-2 µg/ml, cultured for 4 days): 426 % of control
CCCCCCCC/C=C\CCCCCCCC(=O)N[C@@H](CO[C@H]1O[C@H](CO)[C@H](O)[C@H](O)[C@H]1O)[C@H](O)CCCCCCCCCCCCCCC [Compound 29, (2S,3R)-1-(α-D-galactopyranosyloxy)-2-oleoylamino-3-octadecanol]	79.7	319	382	215	–
(2S,3S,4R)-1-(α-D-galactopyranosyloxy)-2-[(R)-2-hydroxytetracosanoylamino]-3,4-heptadecanediol [Compound 22]	–	–	–	–	TGIR (%) [1]: 82.4%; Uptake of ^3H-TdR (% of control) ([2]; sample concentration 10^0 µg/ml, cultured for 42 hours, then 8 hours with 3H-TdR): 414 % of control; Uptake of ^3H-TdR (% of control) ([2]; sample concentration 10^-1 µg/ml, cultured for 42 hours, then 8 hours with 3H-TdR): 166 % of control; Uptake of ^3H-TdR (% of control) ([2]; sample concentration 10^-2 µg/ml, cultured for 42 hours, then 8 hours with 3H-TdR): 149 % of control
CCCCCCCCCCCCCCCCCCCC(=O)N[C@@H](CO[C@H]1O[C@H](CO)[C@H](O)[C@H](O)[C@H]1O)[C@H](O)CCCCCCCCCCCCCCC [Compound 3, (2S,3R)-1-(α-D-galactopyranosyloxy)-2-icosanoylamino-3-octadecanol]	56.9	254	117	110	–
CCCCCCCCCCCCCCCCCCCCCCCC[C@@H](O)C(=O)N[C@@H](CO[C@H]1O[C@H](CO)[C@H](O)[C@H](O)[C@H]1O)[C@H](O)[C@H](O)CCCCCCCCCCCCCC [Compound 25, (2S,3S,4R)-1-(α-D-galactopyranosyloxy)-2-[(R)-2-hydroxyhexacosanoylamino]-3,4-octadecanediol]	92.8	230	179	161	–
CCCCCCCCCCCCCCCCCCCCCC[C@@H](O)C(=O)N[C@@H](CO[C@H]1O[C@H](CO)[C@H](O)[C@H](O)[C@H]1O)[C@H](O)CCCCCCCCCCCCCCC [Compound 14, (2S,3R)-1-(α-D-galactopyranosyloxy)-2-[(R)-2-hydroxytetracosanoylamino]-3-octadecanol]	84	289	197	139	–
CCCCCCCCCCCCCCCCCCCCCC(=O)N[C@@H](CO[C@H]1O[C@H](CO)[C@H](O)[C@H](O)[C@H]1O)[C@H](O)CCCCCCCCCCCCCCC [Compound 2, (2S,3R)-2-docosanoylamino-1-(α-D-galactopyranosyloxy)-3-octadecanol]	53.1	329	115	103	–
CCCCCCCCCCCCCCCCCCCCCCC[C@@H](O)C(=O)N[C@@H](CO[C@H]1O[C@H](CO)[C@H](O)[C@H](O)[C@H]1O)[C@H](O)[C@H](O)CCCCCCCCCCCC(C)CC (stereo partly drawn) [Compound 34, (2S,3S,4R)-1-(α-D-galactopyranosyloxy)-2-[(R)-2-hydroxypentacosanoylamino]-16-methyl-3,4-octadecanediol]	88.9	–	–	–	activity at 0.1 µg/mL ([2]; 96 h, sample concentration 10^-1 µg/ml, cultured for 4 days): 360%; activity at 0.01 µg/mL ([2]; 96 h, sample concentration 10^-2 µg/ml, cultured for 4 days): 406%
CCCCCCCCCCCCCCCCCCCCCCCC(=O)N[C@@H](CO[C@H]1O[C@H](CO)[C@H](O)[C@H](O)[C@H]1O)[C@H](O)[C@H](O)CCCCCCCCCCCCC [Compound 17, (2S,3S,4R)-1-(α-D-galactopyranosyloxy)-2-tetracosanoylamino-3,4-heptadecanediol]	58	410	190	143	–
CCCCCCCCCCCCCCC[C@@H](O)[C@H](CO[C@H]1O[C@H](CO)[C@H](O)[C@H](O)[C@H]1O)NC(=O)CCCCCCCCC [Compound 6, (2S,3R)-2-decanoylamino-1-(α-D-galactopyranosyloxy)-3-octadecanol]	73.7	498	190	187	–
CCCCCCCCCCCCCCCCCCCCCCCC[C@@H](O)C(=O)N[C@@H](CO[C@H]1O[C@H](CO)[C@H](O)[C@H](O)[C@H]1O)[C@H](O)[C@H](O)CCCCCCCCCCCCCCCC [Compound 27, (2S,3S,4R)-1-(α-D-galactopyranosyloxy)-2-[(R)-2-hydroxyhexacosanoylamino]-3,4-icosanediol]	92.8	257	181	162	–
